Where two headings read alike, the source gives them in different places.
Assays:
[1] = Metabolite profiling in lumen, plasma and ileum tissue after SPIP (LC–ESI–LTQ–Orbitrap–MS); format: in vivo
Protocol: The SPIP studies were performed in anesthetized rats according to the method described by López-Yerena and coworkers; the donor blood and surgical procedure (Figure 1) were as described in that study. Regarding the procedure of donor blood, the rats were anesthetized by isoflurane inhalation (2.5%), and the whole blood was collected via cardiac puncture. […]. In the case of the rats that underwent surgery, the rats received intraperitoneal administration of pentobarbital sodium (Dolethal) at a dose of 60 mg/kg, and a maintenance dose of isoflurane (1.5%) was given 50 min after the induction dose. Body temperature was maintained at 37 ± 0.5 °C throughout the experiment by means of a homeothermic blanket. An ileal segment of approximately 7–10 cm was cannulated. […] The phenol red included in the perfusion solution was used as non-absorbable marker for measuring water transport. To avoid the oxidation of OLEA, we carried out the SPIP experiments in a laboratory room with infrared light. Samples of both the intestinal lumen and mesenteric blood were collected simultaneously at 5 min intervals for 60 min. The outflow perfusate samples were collected in 2 mL amber vials and the blood was collected in pre-weighed lithium-heparinized tubes (BD Vacutainer). Next, the perfusate samples were centrifuged (7516× g for 10 min at 4 °C), and the tubes with blood samples were weighed and centrifuged (3000× g for 10 min at 4 °C). The supernatants were collected and immediately stored at −80 °C awaiting analysis by LC–ESI–LTQ–Orbitrap–MS.
Plasma: The extraction of OLEA and its metabolites was carried out with protein precipitation. Initially, the samples were thawed and centrifuged (11,000× g, 10 min at 4 °C). To precipitate proteins, we blended 100 µL of plasma with cold acetonitrile containing 2% of formic acid (1:5 v/v). Samples were vortex-mixed for 1 min and kept at −20 °C for 20 min. The samples were then centrifuged (11,000× g, 4 °C, 10 min), and finally 100 µL of the supernatant was transferred to vials for analysis.
Stability study and lumen samples: The stability and perfusate OLEA samples were defrosted and centrifuged (11,000× g, 4 °C, 10 min), and 100 µL of the upper phase was transferred to vials for analysis. […].
Ileum tissue: The intestinal segment perfunded with OLEA in the SPIP experiments was also analyzed to quantify the OLEA and its metabolites retained in the tissue. First, the intestinal segment was rinsed by several perfusions with TM and then cut into small sections and homogenized after the addition of water/acetonitrile (1:1 (v/v) with 0.1% ascorbic acid) with a small tissue disruptor (T10 basic ULTRA-TURRAX®, IKA laboratory technology, Staufen, Germany). The samples were sonicated in an ice bath (5 min), shaken for 1 min, and centrifuged (11,000× g, 4 °C, 10 min). To precipitate proteins, we blended 100 µL of the upper layer with cold acetonitrile containing 2% of formic acid (1:3 v/v). Samples were vortex-mixed for 1 min, kept at −20 °C for 20 min, and centrifuged again (11,000× g, 4 °C, 10 min) before analyzing the supernatant.
The quantification of OLEA and red phenol in the samples and the profiling and structural characterization of OLEA metabolites was carried out using LC–ESI–LTQ–Orbitrap–MS. LC separation was performed using an Accela chromatograph (Thermo Scientific, Hemel Hempstead, UK) equipped with a quaternary pump, a photodiode array detector, and a thermostated autosampler. A 5-μL sample aliquot was injected onto an Acquity^TM UPLC® BEH C18 Column (2.1 × 100 mm, i.d., 1.7 µm particle size) coupled to an Acquity^TM UPLC® BEH C18 Pre-Column (2.1 × 5 mm, i.d., 1.7 µm particle size) (Waters Corporation®, Wexford, Ireland) with the column temperature set at 50 °C. Eluent A was 0.05% (v/v) formic acid in water, and eluent B was 0.05% formic acid in methanol. […]. […]

[2] = Stability in the perfusion solution (transport medium) at 37 °C; format: physicochemical; settings: for Presence of degradation products / derivatives in the perfusion solution (stability study): OLEA in transport medium, 60 min
Protocol: The transport medium (TM; pH 7, 9.7 g/L HBSS buffered with HEPES 10 mM) was used to infuse the compounds via the intestine. […] Red phenol was assayed at 0.1 mg/mL. The stability of these test compounds, sampled at different times, was monitored in the perfusion solution at 37 °C for 60 min. Stability study and lumen samples: The stability and perfusate OLEA samples were defrosted and centrifuged (11,000× g, 4 °C, 10 min), and 100 µL of the upper phase was transferred to vials for analysis.

[3] = cited from earlier work
[4] = Single-pass intestinal perfusion (SPIP) with mesenteric blood sampling: permeability and absorption; format: in vivo; settings: ileum, SPIP in rats
Protocol: The transport medium (TM; pH 7, 9.7 g/L HBSS buffered with HEPES 10 mM) was used to infuse the compounds via the intestine. […] Red phenol was assayed at 0.1 mg/mL. The stability of these test compounds, sampled at different times, was monitored in the perfusion solution at 37 °C for 60 min.
Differences were considered significant at p < 0.05.

[5] = cited from earlier work; remark: listed apart in the source
[6] = design: method as in PMID 26904279; settings: oral administration 300 mg/kg in rats; cited from earlier work
[7] = after OLEA perfusion (SPIP, 60 min)

Molecule: OCCc1ccc(O)c(O)c1 [M2, hydroxytyrosol]
- Detection in lumen, plasma and ileum tissue samples ([1]; rat, in vivo): found in lumen, plasma, and ileum tissue
- Time of highest concentration ([1]; rat, in vivo): 55 min
- Metabolite level in plasma relative to lumen (fold higher) ([1]; rat, in vivo, 60 min): 27 fold
- Presence of degradation products / derivatives in the perfusion solution (stability study) [2]: absence

Molecule: C/C=C(/CO)C(CC=O)CC(=O)OCCc1ccc(O)c(O)c1 (stereo not shown) [M3]
- Detection in lumen, plasma and ileum tissue samples [1, 7]: detected in lumen, plasma, and ileum tissue

Molecule: C/C=C(/C=O)C(CC(=O)O)CC(=O)OCCc1ccc(O)c(O)c1 (stereo not shown) [M4]
- Detection in lumen, plasma and ileum tissue samples [1, 7]: detected in lumen, plasma, and ileum tissue
- Metabolite level in plasma relative to lumen (fold higher) ([1]; after OLEA perfusion, at 60 min): 29 fold
- Time of highest concentration ([1]; plasma and lumen samples, after OLEA perfusion, p < 0.05): 60 min

Molecule: C/C=C(/C=O)C(CC(=O)OCCc1ccc(O)c(O)c1)CC(O)O (stereo not shown) [M5]
- Detection in lumen, plasma and ileum tissue samples [1, 7]: detected in lumen, plasma, and ileum tissue
- Presence of degradation products / derivatives in the perfusion solution (stability study) [2]: traces

Molecule: C/C=C(/C=O)C(CC=O)CC(=O)OCCc1ccc(O)c(OC)c1 (stereo not shown) [M6]
- Detection in lumen, plasma and ileum tissue samples [1, 7]: found in ileum tissue samples but not in the plasma and lumen

Molecule: C/C=C(/C=O)C(CC(=O)O)CC(=O)OCCc1ccc(O)c(OC)c1 (stereo not shown) [M7]
- Detection in lumen, plasma and ileum tissue samples [1, 7]: detected in plasma and, after being secreted by an efflux membrane protein, in lumen samples

Molecule: C/C=C(/C=O)C(CC(=O)OCCc1ccc(O)c(OC)c1)CC(O)O (stereo not shown) [M8]
- Detection in lumen, plasma and ileum tissue samples [1, 7]: found in ileum tissue samples but not in the plasma and lumen

Molecule: CC=C(CO)C(CC=O)CC(=O)OCCc1ccc(OC2OC(C(=O)O)C(O)C(O)C2O)c(O)c1 (stereo not shown) [M9]
- Main product of phase II biotransformation ([1]; all the samples (plasma, lumen, ileum tissue)): main product of phase II biotransformation reactions in all the samples
- Time of highest relative abundance ([1]; lumen samples, after OLEA perfusion, p < 0.05): 55 to 60 min
- Time of highest relative abundance ([1]; plasma, after OLEA perfusion, p < 0.05): 45 to 60 min

Molecule: CC=C(C=O)C(CC(=O)OCCc1ccc(OC2OC(C(=O)O)C(O)C(O)C2O)c(OC)c1)CC(O)O (stereo not shown) [M11]
- Detection in lumen, plasma and ileum tissue samples [1, 7]: detected in lumen and ileum tissue samples but not in plasma

Molecule: COc1ccc2cc([C@H](C)C(=O)O)ccc2c1 [Naproxen]
- Peff ± SD ([3]; Colon): 2.06 ± 1.04 × 10^−4 cm/s
- Peff ± SD ([3]; Ileum, ref 56): 1.78 ± 0.52 × 10^−4 cm/s
- Peff ± SD ([3]; Ileum, ref 57): 1.17 ± 0.23 × 10^−4 cm/s
- Peff ± SD ([3]; Jejunum, ref 33): 1.19 ± 0.12 × 10^−4 cm/s
- Peff ± SD ([3]; Jejunum, ref 56): 1.47 ± 0.25 × 10^−4 cm/s
- Peff ± SD ([3]; Jejunum, ref 58): 1.17 ± 0.23 × 10^−4 cm/s

Molecule: C/C=C(/C=O)[C@@H](CC=O)CC(=O)OCCc1ccc(O)c(O)c1 [OLEA, Oleacein]
- Absorption (%) ([4]; mean ± SD, n = 4): 48.98 ± 12.27%
- Mean permeability ratio (Peff) of OLEA/naproxen ([4]; p > 0.05): 1.24
- Effective intestinal permeability (Peff) at 60 min ([4]; rat, pH 7, luminal disappearance, mean ± SD, n = 4, read-out: Intestinal effective permeability coefficient (Peff) ± SD): 183 ± 18 ×10⁻⁶ cm/s
- log P (octanol/water) ([5]; ref 16): 1.02
- log P (octanol/water) ([5]; ref 60): 1.53
- Detection in portal plasma [6]: did not observe
- Stability in the perfusion solution ([2]; over 60 min, p > 0.05): remained stable

Molecule: elenolic acid
- Detection in lumen, plasma and ileum tissue samples [1, 7]: not detected in any sample
